Reference: patent US10238658B2, “1-pyrazolyl-3-(4-((2-anilinopyrimidin-4-yl) oxy) napththalen-1-yl) ureas as p38 MAP kinase inhibitors” (Respivert Limited, priority 2011, dated 2019)

Experiments:
TNFα [1] = experiment: LPS-induced TNFα release in d-U937 cells; assay type: cell-based; conditions: Homo sapiens, dU937, dU937 cells; relative to 10 μg/mL BIRB796; read-out: LPS Induced Release TNFα REC50 (dU937)
Protocol: (§1) U937 cells, a human monocytic cell line, were differentiated into macrophage-type cells by incubation with PMA (100 ng/mL) for 48 to 72 hr. Cells were pre-incubated with final concentrations of test compound for 2 hr and were then stimulated with LPS (0.1 μg/mL; from E. Coli: O111:B4, Sigma) for 4 hr. The supernatant was collected for determination of TNFα and IL-8 concentrations by sandwich ELISA (Duo-set, R&D systems). […] The relative 50% effective concentration (REC50) was determined from the resultant concentration-response curve. The inhibition of IL-8 production was calculated at each concentration of test compound by comparison with vehicle control.

IL-8 [2] = experiment: Rhinovirus-induced IL-8 release in BEAS2B cells; assay type: cell-based; conditions: Homo sapiens, BEAS-2B, at 0.04 μg/mL; read-out: HRV IL-8 (BEAS2B) % inhibition
Protocol: Human rhinovirus RV16 was obtained from the American Type Culture Collection (Manassas, Va.). Viral stocks were generated by infecting Hela cells with HRV until 80% of the cells were cytopathic.
BEAS2B cells were infected with HRV at an MOI of 5 and incubated for 2 hr at 33° C. with gentle shaking for to promote absorption. The cells were then washed with PBS, fresh media added and the cells were incubated for a further 72 hr. The supernatant was collected for assay of IL-8 concentrations using a Duoset ELISA development kit (R&D systems, Minneapolis, Minn.). […]

IL-8 [3] = experiment: LPS-induced IL-8 release in d-U937 cells; assay type: cell-based; conditions: Homo sapiens, dU937, dU937 cells
Protocol: as §1

RSV A2 = experiment: In vitro RSV virus load (F-protein ELISA) in primary bronchial epithelial cells; assay type: cell-based, respiratory syncytical virus; conditions: human respiratory syncytial virus, Primary bronchial epithelial cell; at 0.04 μg/mL; read-out: RSV (F-Elisa) (HBEC) % inhibition
Protocol: Normal human bronchial epithelial cells (NHBEC) grown in 96 well plates were infected with RSV A2 (Strain A2, HFA, Salisbury, UK) at an MOI of 0.001 in the LHC8 Media:RPMI-1640 (50:50) containing 15 mM magnesium chloride and incubated for 1 hr at 37° C. for adsorption. The cells were then washed with PBS (3×200 μL), fresh media (200 μL) was added and incubation continued for 4 days. Where appropriate, cells were pre-incubated with the compound or DMSO for 2 hr, and then added again after washout of the virus.
The cells were fixed with 4% formaldehyde in PBS solution (50 μL) for 20 min, washed with washing buffer (3×200 μL; PBS including 0.5% BSA and 0.05% Tween-20) and incubated with blocking solution (5% condensed milk in PBS) for 1 hr. Cells were then washed with washing buffer (3×200 μL) and incubated for 1 hr at RT with anti-RSV (2F7) F-fusion protein antibody (40 μL; mouse monoclonal, lot 798760, Cat. No. ab43812, Abcam) in 5% BSA in PBS-tween). After washing, cells were incubated with an HRP-conjugated secondary antibody solution (50 μL) in 5% BSA in PBS-Tween (lot 00053170, Cat.No. P0447, Dako) and then TMB substrate (50 μL; substrate reagent pack, lot 269472, Cat. No. DY999, R&D Systems, Inc.) was added. This reaction was stopped by the addition of 2N H2SO4 (50 μL) and the resultant signal was determined colorimetrically (OD: 450 nm with a reference wavelength of 655 nm) in a microplate reader (Varioskan® Flash, ThermoFisher Scientific).
After washing with washing buffer, 1% SDS in distilled water (100 μL) was added to each well, and plates were shaken lightly on the shaker for 1 hr prior to reading the absorbance at 595 nm. The measured OD450-655 readings were corrected to the cell number by dividing the OD450-655 by the OD595 readings. The percentage inhibition for each well was calculated and the IC50 value was calculated from the concentration-response curve generated from the serial dilutions of compound.

HRV16 = HRV16 induced CPE in MRC5 cells; assay type: cell-based; conditions: Human rhinovirus sp., HRV16, MRC5, at 0.04 μg/mL; read-out: HRV CPE (MRC5) % inhibition
Protocol: The supernatants were aspirated, and then fresh media added followed by incubation for 4 days. Where appropriate, cells were pre-incubated with compound or DMSO for 2 hr, and the compounds and DMSO added again after washout of the virus.
The percentage inhibition for each well was calculated. The IC50 value was calculated from the concentration-response curve generated by the serial dilutions of the test compounds.

TNFα [4] = experiment: LPS-induced TNFα release in THP-1 cells; assay type: cell-based; conditions: Homo sapiens, THP-1, THP1 cells
Protocol: THP-1 cells, a human monocytic cell line, were stimulated with 3 μg/mL of LPS (from E. Coli; 0111:B4, Sigma) for 4 hr and the supernatant collected for determination of the TNFα concentration by sandwich ELISA (Duo-set, R&D systems). The inhibition of TNFα production was calculated at each concentration by comparison with vehicle control.

PBMC = experiment: Cell mitosis assay; assay type: cell-based; conditions: Homo sapiens, read-out: Mitosis Assay % inhibition in PBMC Cells at concn 5 μg/mL
Protocol: Peripheral blood mononucleocytes (PBMCs) from healthy subjects were separated from whole blood (Quintiles, London, UK) using a density gradient (Histopaque®-1077, Sigma-Aldrich, Poole, UK). The PBMCs (3 million cells per sample) were subsequently treated with 2% PHA (Sigma-Aldrich, Poole, UK) for 48 hr, followed by a 20 hr exposure to varying concentrations of test compounds. At 2 hr before collection, PBMCs were treated with demecolcine (0.1 μg/mL; Invitrogen, Paisley, UK,) to arrest cells in metaphase. To observe mitotic cells, PBMCs were permeabilised and fixed by adding Intraprep (50 μL; Beckman Coulter, France), and stained with anti-phospho-histone 3 ([…]; #9701; Cell Signalling, Danvers, Mass.) and propidium iodide (1 mg/mL; Sigma-Aldrich, Poole, UK,) as previously described (Muehlbauer P. A. and Schuler M. J., Mutation Research, 2003, 537:117-130). Fluorescence was observed using an ATTUNE flow cytometer (Invitrogen, Paisley, UK), gating for lymphocytes.

A/J mice = experiment: Cigarette smoke model: macrophage and neutrophil accumulation in BALF; assay type: in vivo, mouse; conditions: 1.75 μg/mouse (35 μL, bid, i.n.)
Protocol: A/J mice (males, 5 weeks old) were exposed to cigarette smoke (4% cigarette smoke, diluted with air) for 30 min/day for 11 days using a Tobacco Smoke Inhalation Experiment System for small animals (Model SIS-CS; Sibata Scientific Technology, Tokyo, Japan). […] At 12 hr after the last dosing, each of the animals was anesthetized, the trachea cannulated and bronchoalveolar lavage fluid (BALF) was collected. The numbers of alveolar macrophages and neutrophils were determined by FACS analysis (EPICS® ALTRA II, Beckman Coulter, Inc., Fullerton, Calif., USA) using anti-mouse MOMA2 antibody (macrophage) or anti-mouse 7/4 antibody (neutrophil). BALF was centrifuged and the supernatant was collected. The level of keratinocyte chemoattractant (KC; CXCL1) in BALF was quantitated using a Quentikine® mouse KC ELISA kit (R&D systems, Inc., Minneapolis, Minn., USA).

IL-6 [5] = experiment: TNFα-stimulated IL-6 production in primary bronchial epithelial cells from COPD; assay type: cell-based; conditions: Homo sapiens, Epithelial cell; read-out: IL-6 E max, bronchial epithelial cell
Protocol: (§2) Primary airway epithelial cells obtained from patients with COPD were purchased from Asterand (Royston, UK), and maintained in bronchial epithelial cell growth media that was prepared by mixing together LHC8 (lnvitrogen) (500 mL), with LHC9 (Invitrogen) (500 mL) and 3 μL of retinoic acid solution (5 mg/mL in neat DMSO. The media was removed by aspiration and fresh BEGM (200 μL) was added to each well. Where appropriate, 1 μL of a solution of the test compound at the state concentrations or 1 μL of DMSO as the vehicle control was added and the cells were incubated for 2 hr. The cells were stimulated with TNFα (50 μL; final concentration 50 ng/mL) and then incubated for 4 hr at 37° C. and 5% CO2. The supernatant was then collected and kept at −20° C.
(§3) The levels of IL-6 and IL-8 were determined by ELISA using R&D Systems' Human IL-6 and IL-8 Duoset® Elisa Kits. The inhibition of IL-6 and IL-8 production was calculated at each concentration by comparison with vehicle control.

MIP1α = experiment: LPS-stimulated MIP1α production in sputum macrophages from COPD; assay type: cell-based; conditions: Homo sapiens, Macrophage; read-out: MIP1α E max, sputum macrophage
Protocol: (§4) Patients with COPD were inhaled with a nebulised solution of 3% (w/v) hypertonic saline using an ultrasonic nebuliser (Devilbiss, Carthage, Mo.) with tidal breathing for 5 min. This procedure was repeated a maximum of three times until enough sputum was obtained. The sputum samples were homogenized and mixed vigorously using a vortex mixer in 0.02% v/v dithiothreitol (DTT) solution. The samples were re-suspended in PBS (40 mL) followed by centrifugation at 1500 rpm at 4° C. for 10 min to obtain sputum cell pellets. The pellets were washed twice with PBS (40 mL). The sputum cells were then re-suspended in macrophage serum-free medium (macrophage-SFM, Life technologies, Paisley, UK; to achieve 2×10^6/well in a 24 well plate) containing 20 U/mL penicillin, 0.02 mg/mL streptomycin and 5 μg/mL amphotericin B and seeded on high bound 96-well plate, followed by incubation for 2 hr at 37° C. and at 5% CO2 to allow the macrophages to attach to the bottom of the plate. The cells on the plate were washed with fresh macrophage-SFM (200 μL/well) to remove neutrophils and other contaminated cells. The adherent cells (mainly sputum macrophages) on the plate were used for further analysis. Sputum induction and isolation were conducted in Quintiles Drug Research Unit at Guys Hospital and ethics approval and written informed consent was obtained by Quintiles.
(§5) Where appropriate, 1 μL of a solution containing either the test compound or reference article at the stated concentrations or alternatively 1 μL of DMSO as the vehicle control was added to each well (200 μL in media) and the cells were incubated for 2 hr. […] After washing with 200 uL wash buffer per well, the beads were resuspended in sheath fluid (150 μL) and analyzed immediately. The level of each analyte in the supernatant was calculated using Xcel Fit software with a 4 or 5-parameter equation using each standard curve. The inhibitions of each cytokine production were calculated at each concentration by comparison with vehicle control. The IC50 values were determined from concentration-inhibition curves using XL-Fit (idbs, Guildford, UK)

IL-8 [6] = experiment: TNFα-stimulated IL-8 production in primary bronchial epithelial cells from COPD; assay type: cell-based; conditions: Homo sapiens, Epithelial cell; read-out: IL-8 E max, bronchial epithelial cell
Protocol: as §2, §3

TNFα [7] = experiment: LPS-stimulated TNFα production in sputum macrophages from COPD; assay type: cell-based; conditions: Homo sapiens, Macrophage; read-out: TNFα E max, sputum macrophage
Protocol: as §4, §5

IL-6 [8] = experiment: LPS-stimulated IL-6 production in sputum macrophages from COPD; assay type: cell-based; conditions: Homo sapiens, Macrophage; read-out: IL-6 E max, sputum macrophage
Protocol: Patients with COPD were inhaled with a nebulised solution of 3% (w/v) hypertonic saline using an ultrasonic nebuliser (Devilbiss, Carthage, Mo.) with tidal breathing for 5 min. This procedure was repeated a maximum of three times until enough sputum was obtained. The sputum samples were homogenized and mixed vigorously using a vortex mixer in 0.02% v/v dithiothreitol (DTT) solution. The samples were re-suspended in PBS (40 mL) followed by centrifugation at 1500 rpm at 4° C. for 10 min to obtain sputum cell pellets. The pellets were washed twice with PBS (40 mL). […]
as §5

IL-8 [9] = experiment: LPS-stimulated IL-8 production in sputum macrophages from COPD; assay type: cell-based; conditions: Homo sapiens, Macrophage; read-out: IL-8 E max, sputum macrophage
Protocol: as §4, §5

Row | EC50 (TNFα [1]) [nM] | IC50 (IL-8 [3]) [nM] | IC50 (TNFα [4]) [nM] | Structure (SMILES) | inhibition at 0.04 µg/mL (IL-8 [2]) [%] | inhibition at 0.04 µg/mL (RSV A2) [%] | inhibition at 0.04 µg/mL (HRV16) [%] | inhibition at 5 µg/mL (PBMC) [%] | macrophage accumulation into airways, cigarette smoke model (A/J mice) | neutrophil accumulation into airways, cigarette smoke model (A/J mice) | Emax at 0.1 µg/mL (IL-6 [5]) [%] | Emax at 0.1 µg/mL (MIP1α) [%] | Emax at 0.1 µg/mL (IL-8 [6]) [%] | Emax at 0.1 µg/mL (TNFα [7]) [%] | Emax at 0.1 µg/mL (IL-6 [8]) [%] | Emax at 0.1 µg/mL (IL-8 [9]) [%]
1 | 9.7 | > 1680 | 17 | Cc1ccc(-n2nc(C(C)(C)C)cc2NC(=O)Nc2ccc(Oc3ccnc(Nc4ccccc4C)n3)c3ccccc23)cc1 [Example 21, 1-(3-(tert-butyl)-1-(p-tolyl)-1H-pyrazol-5-yl)-3-(4-((2-(o-tolylamino)pyrimidin-4-yl)oxy)naphthalen-1-yl)urea] | 100 | 66 | 3 | – | – | – | – | – | – | – | – | –
2 | 17 | > 1590 | 30 | CCOc1ccc(Nc2nccc(Oc3ccc(NC(=O)Nc4cc(C(C)(C)C)nn4-c4ccc(C)cc4)c4ccccc34)n2)cc1 [Example 22, 1-(3-(tert-butyl)-1-(p-tolyl)-1H-pyrazol-5-yl)-3-(4-((2-((4-ethoxyphenyl)amino)pyrimidin-4-yl)oxy)naphthalen-1-yl)urea] | 100 | 78 | 48 | 70.8 | – | – | – | – | – | – | – | –
3 | 8 | 22 | 24 | Cc1ccc(-n2nc(C(C)(C)C)cc2NC(=O)Nc2ccc(Oc3ccnc(Nc4ccc(F)cc4)n3)c3ccccc23)cc1 [Example 23, 1-(3-(tert-butyl)-1-(p-tolyl)-1H-pyrazol-5-yl)-3-(4-((2-((4-fluorophenyl)amino)pyrimidin-4-yl)oxy)naphthalen-1-yl)urea] | 100 | 41 | 18 | – | – | – | – | – | – | – | – | –
4 | – | – | – | CCC(=O)O[C@]1(C(=O)SCF)[C@H](C)C[C@H]2[C@@H]3C[C@H](F)C4=CC(=O)C=C[C@]4(C)[C@@]3(F)[C@@H](O)C[C@@]21C [Fluticasone Propionate, fluticasone propionate, reference compound] | – | – | – | – | did not inhibit | did not inhibit | 38 | 20 | 17 | 18 | 26 | 19
